We go through 1 compound from patent US8128962B2, “Liquid compositions containing solubilized benzoyl peroxide, means for applying same and methods of treatment using same” (priority 2007, dated 2012).

In one data set the test system is Propionibacterium acnes. The following applies: versus clindamycin or erythromycin; Leyden 2001; cited from earlier work.
The conditions of data set [1]: water and most dermatologically safe solvents; cited from earlier work.
Data set [2] can be described thus: Solubility of BP in solvents. Type of data set: physicochemical.

With `O=C(OOC(=O)c1ccccc1)c1ccccc1` [BP, benzoyl peroxide], the “Effectiveness in killing the bacteria responsible for causing acne” value with Propionibacterium acnes was “more effective than either clindamycin or erythromycin”. For the same compound, the “Solubility of BP in water” value in data set [1] is reported as “virtually insoluble”. Besides, the “Solubility of BP in absolute alcohol” value in data set [2] is given as “poor”.
